Data taken from patent US8933028B2, “Use of selective estrogen receptor modulator for joint fusion and other repair or healing of connective tissue” (priority 2010, dated 2015).
Entries after “also recorded” stand apart in the source; their conditions may differ.

Legend:
sacroiliac joint = experiment: Effect of oral raloxifene on bone healing after sacroiliac joint fusion with BMP-2; assay type: in vivo, human
Source text: The patients involved in the study were female at age of over 60 years old.

[1] = cited from earlier work
bone = conditions: postmenopausal women, compared with estrogen; cited from earlier work
endogenous BMP-2 = conditions: primarily on the α-estrogen receptor; cited from earlier work
osteoblastic cells = conditions: cited from earlier work
fracture healing = conditions: primates; cited from earlier work
tendon to bone healing = conditions: rat model; cited from earlier work
[2] = raloxifene therapy for osteoporosis

O=C(c1ccc(OCCN2CCCCC2)cc1)c1c(-c2ccc(O)cc2)sc2cc(O)ccc12 [raloxifene]
bone healing or bone graft incorporation versus raloxifene immediately following surgery (sacroiliac joint; delayed raloxifene administration): not as complete
recovery versus control patients with BMP-2 only (sacroiliac joint; delayed raloxifene administration, some patients): superior recovery results
bone healing / maturity of bone (sacroiliac joint; females over 60, raloxifene 60 mg/day orally for three months after surgery, BMP-2 at surgery in all patients): Significant improvement
bone graft incorporation into host bone (images) (sacroiliac joint; females over 60, three months after surgery, BMP-2 at surgery in all patients, FIGS. 5-7): improved incorporation; also recorded: fully healed and incorporated
fusion result compared with patient who received BMP-2 without raloxifene (sacroiliac joint; postmenopausal women, local BMP-2 and oral raloxifene, three months): better than normal healing
stimulation of the uterus or breasts [1, 2]: does not stimulate
tolerability [1, 2]: well tolerated
occurrence of uterine bleeding, thrombophlebitis, breast abnormalities, or increased endometrial thickness ([1]; raloxifene treated groups versus control): no differences among groups
activation frequency, bone formation rate or bone volume (bone): did not decrease
effect on endogenous BMP-2 (potentiation / secretion) (endogenous BMP-2): similar
effect on TNF-α induced apoptosis (osteoblastic cells): anti-apoptotic effect

FGF-2: fibroblast growth factor-2, likely potent bone anabolic agent
fracture healing (fracture healing): accelerates fracture healing and prevents nonunion

estrogen
effect on endogenous BMP-2 (potentiation / secretion) (endogenous BMP-2): direct measurable effect

B1: rhPTH: Recombinant Human Parathyroid Hormone (protein, UniProt P01270 32-115, looked up)
Parathyroid hormone: SVSEIQLMHNLGKHLNSMERVEWLRKKLQDVHNFVALGAPLAPRDAGSQRPRKKEDNVLVESHEKSLGEADKADVNVLTKAKSQ
modifications: Parathyroid hormone
tendon repair and tendon qualities (tendon to bone healing): improved
